# Experimental data reported in PubChem BioAssay AID1845200 (Molecular Pharmacology Branch, DTP, NCI, 2023).
# Tested on: ASPS-1 complex tumor spheroids, viability
# Assay: Anticancer human tumor ASPS-1 cell line growth inhibition;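 note: spheroids exposed to agents for 7 days after 3 days of growth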;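 for viability, T/C: 100% = DMSO vehicle treated spheroids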
# Conditions: for IC50: curve of first compound; for viability, T/C: stronger effect = lower value
# Procedure, shortened: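 Complex tumor spheroids combined malignant cells with endothelial cells and mesenchymal stem cells. DNA-damaging drugs and DNA repair inhibitors were tested alone and in combination, at half-log dilutions down from clinical Cmax (top 10 microM if Cmax unknown), 0.25% DMSO final.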
structure (smiles),measurement,setting,value
O=C(c1cc(Cc2n[nH]c(=O)c3ccccc23)ccc1F)N1CCN(C(=O)C2CC2)CC1 + COc1cc2c(cc1O)CCNC21CSC2c3c(OC(C)=O)c(C)c4c(c3C(COC1=O)N1C(O)C3Cc5cc(C)c(OC)c(O)c5C(C21)N3C)OCO4,IC50,second compound 30 pM,26 µM
same,IC50,second compound 94.9 pM,22.1 µM
same,IC50,second compound 0.0003 µM,13 µM
same,IC50,second compound 0.000949 µM,2.08 µM
same,IC50,second compound 0.003 µM,< 0.0949 µM
same,"viability, T/C","second compound 30 pM, first compound 0.0949 µM",114%
same,"viability, T/C","second compound 30 pM, first compound 0.3 µM",112%
same,"viability, T/C","second compound 30 pM, first compound 0.949 µM",105%
same,"viability, T/C","second compound 30 pM, first compound 3 µM",107%
same,"viability, T/C","second compound 30 pM, first compound 9.49 µM",106%
same,"viability, T/C","second compound 30 pM, first compound 30 µM",42.2%
same,"viability, T/C","second compound 94.9 pM, first compound 0.0949 µM",103%
same,"viability, T/C","second compound 94.9 pM, first compound 0.3 µM",103%
same,"viability, T/C","second compound 94.9 pM, first compound 0.949 µM",108%
same,"viability, T/C","second compound 94.9 pM, first compound 3 µM",101%
same,"viability, T/C","second compound 94.9 pM, first compound 9.49 µM",98.6%
same,"viability, T/C","second compound 94.9 pM, first compound 30 µM",32.5%
same,"viability, T/C","second compound 0.0003 µM, first compound 0.0949 µM",97.8%
same,"viability, T/C","second compound 0.0003 µM, first compound 0.3 µM",106%
same,"viability, T/C","second compound 0.0003 µM, first compound 0.949 µM",102%
same,"viability, T/C","second compound 0.0003 µM, first compound 3 µM",98.5%
same,"viability, T/C","second compound 0.0003 µM, first compound 9.49 µM",60.3%
same,"viability, T/C","second compound 0.0003 µM, first compound 30 µM",22.9%
same,"viability, T/C","second compound 0.000949 µM, first compound 0.0949 µM",73%
same,"viability, T/C","second compound 0.000949 µM, first compound 0.3 µM",75.1%
same,"viability, T/C","second compound 0.000949 µM, first compound 0.949 µM",59.5%
same,"viability, T/C","second compound 0.000949 µM, first compound 3 µM",45.3%
same,"viability, T/C","second compound 0.000949 µM, first compound 9.49 µM",21.5%
same,"viability, T/C","second compound 0.000949 µM, first compound 30 µM",4.17%
same,"viability, T/C","second compound 0.003 µM, first compound 0.0949 µM",21.6%
same,"viability, T/C","second compound 0.003 µM, first compound 0.3 µM",22.4%
same,"viability, T/C","second compound 0.003 µM, first compound 0.949 µM",17.4%
same,"viability, T/C","second compound 0.003 µM, first compound 3 µM",12.7%
same,"viability, T/C","second compound 0.003 µM, first compound 9.49 µM",3.59%
same,"viability, T/C","second compound 0.003 µM, first compound 30 µM",1.41%
Cc1cc(C)c(CNC(=O)c2cc(-c3ccc(CN4CCOCC4)cc3)cc3c2cnn3C2CCCC2)c(=O)[nH]1 + Cn1nnc2c(C(N)=O)ncn2c1=O,IC50,second compound 1 µM,> 10 µM
same,IC50,second compound 3.16 µM,> 10 µM
same,IC50,second compound 10 µM,> 10 µM
same,IC50,second compound 31.6 µM,> 10 µM
same,IC50,second compound 100 µM,> 10 µM
same,"viability, T/C","second compound 1 µM, first compound 0.0316 µM",94.8%
same,"viability, T/C","second compound 1 µM, first compound 0.1 µM",95.4%
same,"viability, T/C","second compound 1 µM, first compound 0.316 µM",94.8%
same,"viability, T/C","second compound 1 µM, first compound 1 µM",92.7%
same,"viability, T/C","second compound 1 µM, first compound 3.16 µM",93.2%
same,"viability, T/C","second compound 1 µM, first compound 10 µM",86.7%
same,"viability, T/C","second compound 3.16 µM, first compound 0.0316 µM",102%
same,"viability, T/C","second compound 3.16 µM, first compound 0.1 µM",98.1%
same,"viability, T/C","second compound 3.16 µM, first compound 0.316 µM",98.8%
same,"viability, T/C","second compound 3.16 µM, first compound 1 µM",99.6%
same,"viability, T/C","second compound 3.16 µM, first compound 3.16 µM",92%
same,"viability, T/C","second compound 3.16 µM, first compound 10 µM",91.2%
same,"viability, T/C","second compound 10 µM, first compound 0.0316 µM",86.3%
same,"viability, T/C","second compound 10 µM, first compound 0.1 µM",77.6%
same,"viability, T/C","second compound 10 µM, first compound 0.316 µM",88%
same,"viability, T/C","second compound 10 µM, first compound 1 µM",89.3%
same,"viability, T/C","second compound 10 µM, first compound 3.16 µM",82%
same,"viability, T/C","second compound 10 µM, first compound 10 µM",82%
same,"viability, T/C","second compound 31.6 µM, first compound 0.0316 µM",81.4%
same,"viability, T/C","second compound 31.6 µM, first compound 0.1 µM",83.7%
same,"viability, T/C","second compound 31.6 µM, first compound 0.316 µM",77.7%
same,"viability, T/C","second compound 31.6 µM, first compound 1 µM",87.3%
same,"viability, T/C","second compound 31.6 µM, first compound 3.16 µM",73.2%
same,"viability, T/C","second compound 31.6 µM, first compound 10 µM",69.8%
same,"viability, T/C","second compound 100 µM, first compound 0.0316 µM",69%
same,"viability, T/C","second compound 100 µM, first compound 0.1 µM",67.5%
same,"viability, T/C","second compound 100 µM, first compound 0.316 µM",73.4%
same,"viability, T/C","second compound 100 µM, first compound 1 µM",71.3%
same,"viability, T/C","second compound 100 µM, first compound 3.16 µM",61.3%
same,"viability, T/C","second compound 100 µM, first compound 10 µM",55.3%
[2H]c1nc(C)nc([2H])c1-c1cc(NC[C@@H](C)c2cccc3c(C(=O)NC)ccnc23)ncn1 + CC[C@@]1(O)C(=O)OCc2c1cc1n(c2=O)Cc2cc3c(CN(C)C)c(O)ccc3nc2-1,IC50,second compound 0.003 µM,> 10 µM
same,IC50,second compound 0.00949 µM,> 10 µM
same,IC50,second compound 0.03 µM,> 10 µM
same,IC50,second compound 0.0949 µM,> 10 µM
same,IC50,second compound 0.3 µM,> 10 µM
same,"viability, T/C","second compound 0.003 µM, first compound 0.0316 µM",111%
same,"viability, T/C","second compound 0.003 µM, first compound 0.1 µM",113%
same,"viability, T/C","second compound 0.003 µM, first compound 0.316 µM",110%
same,"viability, T/C","second compound 0.003 µM, first compound 1 µM",107%
same,"viability, T/C","second compound 0.003 µM, first compound 3.16 µM",107%
same,"viability, T/C","second compound 0.003 µM, first compound 10 µM",104%
same,"viability, T/C","second compound 0.00949 µM, first compound 0.0316 µM",112%
same,"viability, T/C","second compound 0.00949 µM, first compound 0.1 µM",106%
same,"viability, T/C","second compound 0.00949 µM, first compound 0.316 µM",107%
same,"viability, T/C","second compound 0.00949 µM, first compound 1 µM",108%
same,"viability, T/C","second compound 0.00949 µM, first compound 3.16 µM",97.8%
same,"viability, T/C","second compound 0.00949 µM, first compound 10 µM",100%
same,"viability, T/C","second compound 0.03 µM, first compound 0.0316 µM",103%
same,"viability, T/C","second compound 0.03 µM, first compound 0.1 µM",101%
same,"viability, T/C","second compound 0.03 µM, first compound 0.316 µM",97.8%
same,"viability, T/C","second compound 0.03 µM, first compound 1 µM",91.3%
same,"viability, T/C","second compound 0.03 µM, first compound 3.16 µM",94.6%
same,"viability, T/C","second compound 0.03 µM, first compound 10 µM",97.4%
same,"viability, T/C","second compound 0.0949 µM, first compound 0.0316 µM",67.8%
same,"viability, T/C","second compound 0.0949 µM, first compound 0.1 µM",75.8%
same,"viability, T/C","second compound 0.0949 µM, first compound 0.316 µM",67.8%
same,"viability, T/C","second compound 0.0949 µM, first compound 1 µM",66.2%
same,"viability, T/C","second compound 0.0949 µM, first compound 3.16 µM",68%
same,"viability, T/C","second compound 0.0949 µM, first compound 10 µM",68.4%
same,"viability, T/C","second compound 0.3 µM, first compound 0.0316 µM",80.2%
same,"viability, T/C","second compound 0.3 µM, first compound 0.1 µM",72.8%
same,"viability, T/C","second compound 0.3 µM, first compound 0.316 µM",77.1%
same,"viability, T/C","second compound 0.3 µM, first compound 1 µM",71.4%
same,"viability, T/C","second compound 0.3 µM, first compound 3.16 µM",74.8%
same,"viability, T/C","second compound 0.3 µM, first compound 10 µM",66.6%
